Experimental data from patent publication US8629173B2, “Solid forms comprising (+)-2-[1-(3-ethoxy-4-methoxyphenyl)-2-methylsulfonylethyl]-4-acetylaminoisoindoline-1,3-dione, compositions thereof, and uses thereof” (Celgene Corporation, priority 2002, dated 2014).
Values after ≈ are worked out from the molar mass of the structure shown.

What was measured:
[1] = target: PDE3 from human platelets (Homo sapiens, UniProt Q14432); test: PDE3 enzyme assay; type: biochemical
[2] = tested on: Zymosan-induced IL-8 production in human neutrophils; test: Zymosan-induced IL-8 production; type: cell-based; details: Neutrophil, 18 hours
Method: Zymosan A, or the heat-killed yeast Saccharomyces cerevisiae, binds to the adhesion molecule Mac-1 on the neutrophil surface and triggers phagocytosis, cell activation and IL-8 production. Zymosan-induced IL-8 production was measured as previously described (Au et al., 1998, Brit. J. Pharm., 123:1260-1266) with the following modifications. Human neutrophils were purified as described above, plated in 96-well tissue culture plates at 3×10^5 cells/well in complete medium, treated with compounds at 10, 2, 0.4, 0.08, 0.016, 0.0032, 0.00064, and 0 μM in duplicate in a final DMSO concentration of 0.1% for 1 hour at 37° C. 5% CO2. Neutrophils were then stimulated with unopsonized, boiled Zymosan A (Sigma) at 2.5×10^5 particles/well for 18 hours. Supernatants were harvested and tested for IL-8 by ELISA (R&D Systems).

[3] = tested on: neutrophil adhesion to HUVEC; test: fMLF-induced adhesion to HUVEC; type: cell-based; details: human neutrophils, 500 nM fMLF
Method: Human umbilical vein endothelial cells (HUVEC) were used as a substrate for neutrophil adhesion as previously described (Derian et al., 1995, J. Immunol., 154:308-317) with the following modifications. HUVEC cells were obtained from Anthrogenesis (Cedar Knolls, N.J., USA), and neutrophils were not treated with cytochalasin B. Cells were treated with compounds at 10, 1, 0.1, 0.01, 0.001, and 0 μM in a final DMSO concentration of 0.1% in duplicate for 10 minutes, stimulated with 500 nM fMLF for 30 minutes, and washed twice with PBS before measuring fluorescence on an FLX800 plate reader (Bio-Tek Instruments, Winooski, Vt., USA).

[4] = pH 7.4
[5] = physchem; details: pH 7.4, aqueous buffer, thermodynamic from solid
[6] = tested on: severe plaque-type psoriasis; test: Phase 2 open-label pilot study in patients with severe plaque-type psoriasis
[7] = 20 mg orally daily for 29 days plus follow-up
[8] = 20 mg orally daily, 29 days, 17 evaluable
[9] = 20 mg orally daily, Day 29, 8 responders
[10] = 20 mg orally daily, Day 29, 19 enrolled
[11] = 20 mg orally daily, Day 29, of enrolled patients
[12] = Nonresponder, 20 mg orally daily

Chain of PDE3 from human platelets (Q14432 whole entry): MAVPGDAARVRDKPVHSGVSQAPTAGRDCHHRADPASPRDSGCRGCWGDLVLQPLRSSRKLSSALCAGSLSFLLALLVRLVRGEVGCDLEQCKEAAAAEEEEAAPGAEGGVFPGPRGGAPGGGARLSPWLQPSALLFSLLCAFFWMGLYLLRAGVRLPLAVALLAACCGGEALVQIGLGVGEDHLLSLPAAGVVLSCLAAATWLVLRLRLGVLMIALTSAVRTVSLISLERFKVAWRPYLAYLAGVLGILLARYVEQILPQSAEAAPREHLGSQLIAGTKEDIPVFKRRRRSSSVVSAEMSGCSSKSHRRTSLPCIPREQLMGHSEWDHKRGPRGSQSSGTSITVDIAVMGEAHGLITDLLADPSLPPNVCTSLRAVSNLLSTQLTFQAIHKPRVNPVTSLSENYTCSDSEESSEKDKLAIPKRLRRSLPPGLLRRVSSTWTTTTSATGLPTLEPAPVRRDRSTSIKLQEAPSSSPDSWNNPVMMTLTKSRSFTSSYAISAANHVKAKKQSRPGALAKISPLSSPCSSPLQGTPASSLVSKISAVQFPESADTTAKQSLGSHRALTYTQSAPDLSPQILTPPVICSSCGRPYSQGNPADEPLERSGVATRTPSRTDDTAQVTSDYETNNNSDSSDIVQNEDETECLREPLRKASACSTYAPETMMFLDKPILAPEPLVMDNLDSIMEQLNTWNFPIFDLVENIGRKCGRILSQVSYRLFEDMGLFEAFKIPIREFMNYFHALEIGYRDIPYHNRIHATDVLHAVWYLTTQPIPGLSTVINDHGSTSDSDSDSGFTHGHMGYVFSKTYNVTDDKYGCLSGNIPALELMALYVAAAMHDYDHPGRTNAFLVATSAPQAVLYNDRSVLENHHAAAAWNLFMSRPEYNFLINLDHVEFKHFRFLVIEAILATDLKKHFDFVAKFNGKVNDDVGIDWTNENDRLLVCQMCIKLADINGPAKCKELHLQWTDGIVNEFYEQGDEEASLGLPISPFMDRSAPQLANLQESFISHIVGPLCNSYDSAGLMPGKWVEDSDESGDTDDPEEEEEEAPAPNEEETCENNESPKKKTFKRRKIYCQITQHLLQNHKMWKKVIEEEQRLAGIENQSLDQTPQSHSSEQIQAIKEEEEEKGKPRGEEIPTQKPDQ

CCOc1cc(C(CS(C)(=O)=O)N2C(=O)c3cccc(NC(C)=O)c3C2=O)ccc1OC (single isomer, unassigned; (+)) [Compound A, (+)-2-[1-(3-ethoxy-4-methoxyphenyl)-2-methylsulfonylethyl]-4-acetylaminoisoindoline-1,3-dione]
PDE Specificity Ratio PDE4/PDE3 ([1]; from Table 1 data): >1200 fold
inhibition at 10 µM ([1]; read-out: PDE3 (% inhib at 10 μM)): 20%
IC50 [2]: 94 nM
IC50 [3]: 150 nM
aqueous solubility relative to the racemic mixture [4]: 3.5 fold
solubility [5]: 12 µg/mL (≈ 26.1 µM)
patients with abnormal HLA-DR that had normal HLA-DR at Day 29 ([6]; 20 mg orally daily): Two
patients with abnormal ICAM-1 at baseline that had normal ICAM-1 at Day 29 ([6]; 20 mg orally daily): Three
patients with abnormal K16 at baseline that had normal K16 at Day 29 ([6]; 20 mg orally daily): one
patients with abnormal fillagrin at baseline that had normal fillagrin at Day 29 ([6]; 20 mg orally daily): three
treatment-related adverse event: headache ([6]; 20 mg orally daily for 29 days): 26.3%
treatment-related adverse event: nausea ([6]; 20 mg orally daily for 29 days): 15.8%
deaths [6, 7]: No deaths
premature discontinuation due to an adverse event [6, 7]: nor did any patient prematurely discontinue due to an adverse event
patients with evaluable biopsies demonstrating a 20% reduction in epidermal skin thickness ([6]; 20 mg orally daily for 29 days, Day 29, 15 evaluable): 53.3%
evaluable patients demonstrating improvement in static Physician's Global Assessment (sPGA) [6, 8]: 52.9%
evaluable patients showing a reduction from baseline in psoriasis body surface area (BSA) [6, 8]: 58.8%
mean reduction from baseline in dermal CD83+ cells in responders ([6]; 20 mg orally daily, Day 29): 25.86%
mean reduction from baseline in epidermal CD83+ cells in responders ([6]; 20 mg orally daily, Day 29): 32.50%
reduction of CD11c cells in the dermis in responders ([6]; 20 mg orally daily, Day 29): 18.50%
reduction of CD11c cells in the epidermis in responders ([6]; 20 mg orally daily, Day 29): 40.16%
decrease of dermal T-cells in responders [6, 9]: 28.79%
decrease of epidermal T-cells in responders [6, 9]: 42.56%
enrolled subjects demonstrating improvement in PASI [6, 10]: 73.7%
patients showing >50% reduction from baseline in total PASI score [6, 10]: 15.8%
mean reduction of epidermal thickness ([6]; 20 mg orally daily, Day 29, all 15 evaluable subjects, p=0.015): 20.5%
enrolled patients showing a reduction from baseline in psoriasis BSA [6, 11]: 52.6%
enrolled patients showing an improvement in sPGA [6, 11]: 47.4%
overall safety ([6]; 20 mg p.o. QD for 29 days): safe
Percentage Reduction at Day 29: CD11c, Dermis [6, 12]: −21.19%
Percentage Reduction at Day 29: CD11c, Epidermis [6, 12]: −2.54%
Percentage Reduction at Day 29: CD83+, Dermis [6, 12]: +0.46%
Percentage Reduction at Day 29: CD83+, Epidermis [6, 12]: −16.31%
Percentage Reduction at Day 29: T-cells, Dermis [6, 12]: −17.34%
Percentage Reduction at Day 29: T-cells, Epidermis [6, 12]: +8.74%
Percentage Reduction at Day 29: CD11c, Dermis ([6]; Responder, 20 mg orally daily): −18.50%
Percentage Reduction at Day 29: CD11c, Epidermis ([6]; Responder, 20 mg orally daily): −40.16%
Percentage Reduction at Day 29: CD83+, Dermis ([6]; Responder, 20 mg orally daily): −25.86%
Percentage Reduction at Day 29: CD83+, Epidermis ([6]; Responder, 20 mg orally daily): −32.50%
Percentage Reduction at Day 29: T-cells, Dermis ([6]; Responder, 20 mg orally daily): −28.79%
Percentage Reduction at Day 29: T-cells, Epidermis ([6]; Responder, 20 mg orally daily): −42.56%
reduction of mRNA expression of iNOS in lesional skin (RT-PCR) ([6]; after 29 days of treatment, 20 mg orally daily, p=0.025): 66.5%
